Target: T1, GSK-3β (Homo sapiens, UniProt P49841)
T1 construct: gene GSK3B
Test: caliper mobility shift kinase assay with peptide FAM-P15 and ATP
Type: biochemical

T1 sequence (P49841 whole entry): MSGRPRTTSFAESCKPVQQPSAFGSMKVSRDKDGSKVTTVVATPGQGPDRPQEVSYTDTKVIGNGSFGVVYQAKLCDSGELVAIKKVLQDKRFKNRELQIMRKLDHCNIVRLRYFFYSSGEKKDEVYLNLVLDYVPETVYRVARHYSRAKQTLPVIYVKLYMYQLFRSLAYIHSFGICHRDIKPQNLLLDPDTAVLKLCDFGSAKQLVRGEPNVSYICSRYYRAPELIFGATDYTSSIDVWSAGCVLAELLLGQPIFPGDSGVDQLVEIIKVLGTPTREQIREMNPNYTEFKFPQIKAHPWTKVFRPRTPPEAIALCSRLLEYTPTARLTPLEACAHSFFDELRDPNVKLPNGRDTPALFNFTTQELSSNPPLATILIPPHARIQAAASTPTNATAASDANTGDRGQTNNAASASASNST

IC50: 66 ± 2.5 nM
SMILES: Oc1cc(-c2c[nH]c3ncc(-c4ccc(CNc5ccncc5)cc4)cc23)cc2cccnc12 [B10, 6-(5-(4-((pyridin-4-ylamino)methyl)phenyl)-1H-pyrrolo[2,3-b]pyridin-3-yl)quinolin-8-ol]

— article PMC7140427, “A Unique GSK-3β inhibitor B10 Has a Direct Effect on Aβ, Targets Tau and Metal Dyshomeostasis, and Promotes Neuronal Neurite Outgrowth” (Cells, 2020)
